Measurements published in ChEMBL document CHEMBL1201861, “Genomics of Drug Sensitity in Cancer screening data, Wellcome Trust Sanger Institute”.
pIC50: −log10 of the molar value.

Columns and labels:
Test in all cases: cells
Conditions in all cases: Homo sapiens
[1] = system: JVM-2; format: functional, cell-based;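 note: growth inhibition of JVM-2 cells determined by a cell viability assay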
Description: SANGER: Inhibition of human JVM-2 cell growth in a cell viability assay.

[2] = system: IST-MES1; format: functional, cell-based;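 note: growth inhibition of IST-MES1 cells, measured with a cell viability assay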
Description: SANGER: Inhibition of human IST-MES1 cell growth in a cell viability assay.

[3] = system: GCIY; format: functional, cell-based;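 note: growth inhibition of the human GCIY cell line, read out by a cell viability assay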
Description: SANGER: Inhibition of human GCIY cell growth in a cell viability assay.

[4] = system: GR-ST; format: functional, cell-based
Description: SANGER: Inhibition of human GR-ST cell growth in a cell viability assay.

[5] = system: LB373-MEL-D; format: functional, cell-based;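 note: growth inhibition of the cell line, read out in a cell viability assay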
Description: SANGER: Inhibition of human LB373-MEL-D cell growth in a cell viability assay.

[6] = system: OMC-1; format: functional, cell-based;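 note: growth inhibition of the OMC-1 cell line, measured by a cell viability assay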
Description: SANGER: Inhibition of human OMC-1 cell growth in a cell viability assay.

[7] = system: NB5; format: functional, cell-based;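 note: growth inhibition of NB5 cells, read out as cell viability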
Description: SANGER: Inhibition of human NB5 cell growth in a cell viability assay.

[8] = system: SBC-1; format: functional, cell-based;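 note: cell viability assay measuring growth inhibition of the SBC-1 cell line, IC50 being the concentration that halves growth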
Description: SANGER: Inhibition of human SBC-1 cell growth in a cell viability assay.

[9] = system: CCRF-CEM; format: functional, cell-based;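 note: inhibition of CCRF-CEM cell growth, measured by a cell viability assay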
Description: SANGER: Inhibition of human CCRF-CEM cell growth in a cell viability assay.

[10] = system: K5; format: functional, cell-based
Description: SANGER: Inhibition of human K5 cell growth in a cell viability assay.

[11] = system: KALS-1; format: functional, cell-based;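 note: growth inhibition of KALS-1 cells, determined with a cell viability assay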
Description: SANGER: Inhibition of human KALS-1 cell growth in a cell viability assay.

[12] = system: KNS-42; format: functional, cell-based;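 note: growth inhibition of KNS-42 cells, read out with a cell viability assay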
Description: SANGER: Inhibition of human KNS-42 cell growth in a cell viability assay.

[13] = system: SNU-C2B; format: functional, cell-based;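 note: cell viability readout used to measure compound-driven suppression of SNU-C2B cell proliferation, IC50 marking half-maximal growth inhibition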
Description: SANGER: Inhibition of human SNU-C2B cell growth in a cell viability assay.

[14] = system: SCC-15; format: functional, cell-based;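 note: growth inhibition of SCC-15 cells, read out with a cell viability assay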
Description: SANGER: Inhibition of human SCC-15 cell growth in a cell viability assay.

[15] = system: 8-MG-BA; format: functional, cell-based;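 note: growth inhibition of 8-MG-BA cells, read out with a cell viability assay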
Description: SANGER: Inhibition of human 8-MG-BA cell growth in a cell viability assay.

[16] = system: KE-37; format: functional, cell-based;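 note: growth inhibition of KE-37 cells, read out with a cell viability assay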
Description: SANGER: Inhibition of human KE-37 cell growth in a cell viability assay.

[17] = system: MOLT-4; format: functional, cell-based;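 note: growth inhibition of MOLT-4 cells, determined with a cell viability readout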
Description: SANGER: Inhibition of human MOLT-4 cell growth in a cell viability assay.

[18] = system: ALL-PO; format: functional, cell-based;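 note: growth inhibition of ALL-PO cells, read out by a cell viability assay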
Description: SANGER: Inhibition of human ALL-PO cell growth in a cell viability assay.

[19] = system: TK-10; format: functional, cell-based;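 note: growth inhibition of TK-10 cells, read out in a cell viability assay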
Description: SANGER: Inhibition of human TK10 cell growth in a cell viability assay.

[20] = system: SHP77; format: functional, cell-based, SHP-77;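 note: growth inhibition of human SHP-77 cells measured by a cell viability assay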
Description: SANGER: Inhibition of human SHP-77 cell growth in a cell viability assay.

[21] = system: KNS-81-FD; format: functional, cell-based;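 note: growth inhibition of KNS-81-FD cells, read out with a cell viability assay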
Description: SANGER: Inhibition of human KNS-81-FD cell growth in a cell viability assay.

[22] = system: KU812 cell line; format: functional, cell-based;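 note: growth inhibition of KU812 cells, read out with a cell viability assay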
Description: SANGER: Inhibition of human KU812 cell growth in a cell viability assay.

[23] = system: RH-1; format: functional, cell-based;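 note: growth inhibition of human RH-1 cells, read out with a cell viability assay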
Description: SANGER: Inhibition of human RH-1 cell growth in a cell viability assay.

[24] = system: LB1047-RCC; format: functional, cell-based;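 note: inhibition of cell growth, determined with a cell viability assay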
Description: SANGER: Inhibition of human LB1047-RCC cell growth in a cell viability assay.

[25] = system: HOP-62; format: functional, cell-based;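 note: cell growth inhibition determined with a viability assay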
Description: SANGER: Inhibition of human HOP-62 cell growth in a cell viability assay.

[26] = system: GOTO; format: functional, cell-based;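 note: growth inhibition of GOTO cells, read out by a cell viability assay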
Description: SANGER: Inhibition of human GOTO cell growth in a cell viability assay.

[27] = system: NMC-G1; format: functional, cell-based;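 note: growth inhibition of the NMC-G1 cell line, measured with a cell viability read-out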
Description: SANGER: Inhibition of human NMC-G1 cell growth in a cell viability assay.

[28] = system: LS-411N; format: functional, cell-based
[29] = system: BB65-RCC; format: functional, cell-based;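 note: growth inhibition of the cell line, measured with a cell viability assay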
Description: SANGER: Inhibition of human BB65-RCC cell growth in a cell viability assay.

[30] = system: NCI-H1650; format: functional, cell-based;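 note: growth inhibition of human NCI-H1650 cells measured by a cell viability assay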
Description: SANGER: Inhibition of human NCI-H1650 cell growth in a cell viability assay.

[31] = system: ES8; format: functional, cell-based;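 note: growth inhibition of human ES8 cells, read out with a cell viability assay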
Description: SANGER: Inhibition of human ES8 cell growth in a cell viability assay.

[32] = system: NEC8; format: functional, cell-based;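 note: growth inhibition of human NEC8 cells, read out by a cell viability assay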
Description: SANGER: Inhibition of human NEC8 cell growth in a cell viability assay.

[33] = system: SH-4; format: functional, cell-based;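 note: growth inhibition of SH-4 cells, read out with a cell viability assay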
Description: SANGER: Inhibition of human SH-4 cell growth in a cell viability assay.

[34] = system: LNCaP-Clone-FGC; format: functional, cell-based
Description: SANGER: Inhibition of human LNCaP-Clone-FGC cell growth in a cell viability assay.

[35] = system: COLO-668; format: functional, cell-based
Description: SANGER: Inhibition of human COLO-668 cell growth in a cell viability assay.

[36] = system: NTERA-2-cl-D1; format: functional, cell-based;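 note: inhibition of cell growth, measured with a cell viability assay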
Description: SANGER: Inhibition of human NTERA-S-cl-D1 cell growth in a cell viability assay.

[37] = system: Lu-65; format: functional, cell-based;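 note: growth inhibition of Lu-65 cancer cells, read out by a cell viability assay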
Description: SANGER: Inhibition of human LU-65 cell growth in a cell viability assay.

[38] = system: GT3TKB; format: functional, cell-based;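 note: growth inhibition of the cell line, read out with a cell viability assay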
Description: SANGER: Inhibition of human GT3TKB cell growth in a cell viability assay.

[39] = system: EM-2; format: functional, cell-based;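 note: growth inhibition of EM-2 cells, read out with a cell viability assay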
Description: SANGER: Inhibition of human EM-2 cell growth in a cell viability assay.

[40] = system: KURAMOCHI; format: functional, cell-based;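 note: growth inhibition of KURAMOCHI cells, read out with a cell viability assay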
Description: SANGER: Inhibition of human KURAMOCHI cell growth in a cell viability assay.

[41] = system: SK-N-DZ; format: functional, cell-based;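 note: growth inhibition of the cancer cell line, read out through a viability assay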
Description: SANGER: Inhibition of human SK-N-DZ cell growth in a cell viability assay.

[42] = system: MSTO-211H; format: functional, cell-based
Description: SANGER: Inhibition of human MSTO-211H cell growth in a cell viability assay.

[43] = system: KY821; format: functional, cell-based;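 note: growth inhibition of human KY821 cells, read out by a cell viability assay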
Description: SANGER: Inhibition of human KY821 cell growth in a cell viability assay.

[44] = system: D283 Med; format: functional, cell-based
Description: SANGER: Inhibition of human D-283MED cell growth in a cell viability assay.

[45] = system: J-RT3-T3-5; format: functional, cell-based;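 note: cell viability assay measuring growth inhibition of human J-RT3-T3-5 cells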
Description: SANGER: Inhibition of human J-RT3-T3-5 cell growth in a cell viability assay.

[46] = system: EW-24; format: functional, cell-based;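 note: human EW-24 cancer cell line, growth inhibition read out via a cell viability assay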
Description: SANGER: Inhibition of human EW-24 cell growth in a cell viability assay.

[47] = system: CGTH-W-1; format: functional, cell-based;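 note: growth inhibition of human CGTH-W-1 cells measured by cell viability assay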
Description: SANGER: Inhibition of human CGTH-W-1 cell growth in a cell viability assay.

[48] = system: D-263MG; format: functional, cell-based
Description: SANGER: Inhibition of human D-263MG cell growth in a cell viability assay.

[49] = system: EC-GI-10; format: functional, cell-based
Description: SANGER: Inhibition of human EC-GI-10 cell growth in a cell viability assay.

[50] = system: COR-L88; format: functional, cell-based;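 note: growth inhibition of COR-L88 cells, read out with a cell viability assay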
Description: SANGER: Inhibition of human COR-L88 cell growth in a cell viability assay.

[51] = system: P30-OHK; format: functional, cell-based;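 note: growth inhibition of the P30-OHK cell line, read out with a cell viability assay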
Description: SANGER: Inhibition of human P30-OHK cell growth in a cell viability assay.

[52] = system: MLMA; format: functional, cell-based;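 note: growth inhibition of MLMA cells (human), determined through a cell viability readout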
Description: SANGER: Inhibition of human MLMA cell growth in a cell viability assay.

[53] = system: HCE-T; format: functional, cell-based;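 note: cell viability assay read-out, reporting inhibition of HCE-T cell growth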
Description: SANGER: Inhibition of human HCE-T cell growth in a cell viability assay.

[54] = system: KS-1; format: functional, cell-based;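 note: growth inhibition of KS-1 cells, read out with a cell viability assay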
Description: SANGER: Inhibition of human KS-1 cell growth in a cell viability assay.

[55] = system: NCI-H23; format: functional, cell-based;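 note: cell viability assay measuring growth inhibition of NCI-H23 cells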
Description: SANGER: Inhibition of human NCI-H23 cell growth in a cell viability assay.

[56] = system: NCI-H720; format: functional, cell-based;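 note: growth inhibition of human NCI-H720 cells determined by a cell viability assay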
Description: SANGER: Inhibition of human NCI-H720 cell growth in a cell viability assay.

[57] = system: HEL; format: functional, cell-based;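 note: growth inhibition of HEL cells, read out with a cell viability assay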
Description: SANGER: Inhibition of human HEL cell growth in a cell viability assay.

[58] = system: HCE-4; format: functional, cell-based;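 note: cell viability assay measuring inhibition of growth in the human HCE-4 cell line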
Description: SANGER: Inhibition of human HCE-4 cell growth in a cell viability assay.

[59] = system: EW-11; format: functional, cell-based
Description: SANGER: Inhibition of human EW-11 cell growth in a cell viability assay.

[60] = system: DSH1; format: functional, cell-based
Description: SANGER: Inhibition of human DSH1 cell growth in a cell viability assay.

[61] = system: NCI-H1648; format: functional, cell-based
Description: SANGER: Inhibition of human NCI-H1648 cell growth in a cell viability assay.

[62] = system: BT-474; format: functional, cell-based
Description: SANGER: Inhibition of human BT-474 cell growth in a cell viability assay.

[63] = system: ES3; format: functional, cell-based
Description: SANGER: Inhibition of human ES3 cell growth in a cell viability assay.

[64] = system: C2BBe1; format: functional, cell-based
Description: SANGER: Inhibition of human C2BBe1 cell growth in a cell viability assay.

[65] = system: LS-123; format: functional, cell-based
Description: SANGER: Inhibition of human LS-123 cell growth in a cell viability assay.

[66] = system: U-266; format: functional, cell-based
Description: SANGER: Inhibition of human U-266 cell growth in a cell viability assay.

CC(C)=CC[C@@H](O)C1=CC(=O)c2c(O)ccc(O)c2C1=O [SHIKONIN]
pIC50 [1]: 5.41 | pIC50 [2]: 5.77 | pIC50 [3]: 7.44 | pIC50 [4]: 6.99 | pIC50 [5]: 6.41 | pIC50 [6]: 5.76 | pIC50 [7]: 5.61 | pIC50 [8]: 4.92 | pIC50 [9]: 6.25 | pIC50 [10]: 6.13 | pIC50 [11]: 5.88 | pIC50 [12]: < 4.80 | pIC50 [13]: < 4.80 | pIC50 [14]: 6.19 | pIC50 [15]: 7.07 | pIC50 [16]: 6.61 | pIC50 [17]: 6.39 | pIC50 [18]: 6.50 | pIC50 [19]: 5.91 | pIC50 [20]: 6.35 | pIC50 [21]: 5.97 | pIC50 [22]: > 7.20 | pIC50 [23]: 6.14 | pIC50 [24]: 6.52 | pIC50 [25]: 5.94 | pIC50 [26]: 5.34 | pIC50 [27]: 5.89 | pIC50 [28]: 5.50 | pIC50 [29]: 6.16 | pIC50 [30]: 5.86 | pIC50 [31]: 6.11 | pIC50 [32]: 6.08 | pIC50 [33]: 6.43 | pIC50 [34]: < 4.80 | pIC50 [35]: 5.21 | pIC50 [36]: 6.84 | pIC50 [37]: < 4.80 | pIC50 [38]: 6.46 | pIC50 [39]: 6.01 | pIC50 [40]: 5.50 | pIC50 [41]: 5.74 | pIC50 [42]: < 4.80 | pIC50 [43]: 6.13 | pIC50 [44]: 6.08 | pIC50 [45]: 5.68 | pIC50 [46]: 4.84 | pIC50 [47]: 6.30 | pIC50 [48]: 5.65 | pIC50 [49]: < 4.80 | pIC50 [50]: < 4.80 | pIC50 [51]: 6.66 | pIC50 [52]: 6.27 | pIC50 [53]: 6.14 | pIC50 [54]: 7.38 | pIC50 [55]: < 4.80 | pIC50 [56]: < 4.80 | pIC50 [57]: 5.69 | pIC50 [58]: 6.41 | pIC50 [59]: 6.35 | pIC50 [60]: 4.98 | pIC50 [61]: 4.95 | pIC50 [62]: 6.68 | pIC50 [63]: 6.18 | pIC50 [64]: 6.12 | pIC50 [65]: 6.27 | pIC50 [66]: 6.17

CCNC(=O)c1noc(-c2cc(C(C)C)c(O)cc2O)c1-c1ccc(CN2CCOCC2)cc1 [LUMINESPIB]
pIC50 [1]: < 6.59 | pIC50 [2]: < 6.59 | pIC50 [3]: 7.69 | pIC50 [4]: 6.99 | pIC50 [5]: < 6.59 | pIC50 [6]: 7.76 | pIC50 [7]: 7.44 | pIC50 [8]: < 6.59 | pIC50 [9]: 7.63 | pIC50 [10]: 7.88 | pIC50 [11]: 7.83 | pIC50 [12]: < 6.59 | pIC50 [13]: 7.90 | pIC50 [14]: 7.55 | pIC50 [15]: 7.72 | pIC50 [16]: 7.25 | pIC50 [17]: 7.32 | pIC50 [18]: 7.76 | pIC50 [19]: 7.86 | pIC50 [20]: 6.84 | pIC50 [21]: 7.16 | pIC50 [22]: 7.43 | pIC50 [23]: 7.21 | pIC50 [24]: 7.30 | pIC50 [25]: 7.81 | pIC50 [26]: 6.76 | pIC50 [27]: 7.64 | pIC50 [28]: 7.43 | pIC50 [29]: 7.92 | pIC50 [30]: 7.78 | pIC50 [31]: 7.45 | pIC50 [32]: < 6.59 | pIC50 [33]: 7.38 | pIC50 [34]: 7.09 | pIC50 [35]: 7.10 | pIC50 [36]: 7.87 | pIC50 [37]: 6.69 | pIC50 [38]: 7.92 | pIC50 [39]: < 6.59 | pIC50 [40]: 7.21 | pIC50 [41]: 6.75 | pIC50 [42]: < 6.59 | pIC50 [43]: < 6.59 | pIC50 [44]: < 6.59 | pIC50 [45]: 7.05 | pIC50 [46]: < 6.59 | pIC50 [47]: 7.63 | pIC50 [48]: 7.25 | pIC50 [49]: < 6.59 | pIC50 [50]: 6.77 | pIC50 [51]: < 6.59 | pIC50 [52]: 7.34 | pIC50 [53]: 7.54 | pIC50 [54]: 8.07 | pIC50 [55]: 6.62 | pIC50 [56]: < 6.59 | pIC50 [57]: 7.41 | pIC50 [58]: 7.67 | pIC50 [59]: 7.12 | pIC50 [60]: 7.20 | pIC50 [61]: 7.82 | pIC50 [62]: 7.15 | pIC50 [63]: 7.06 | pIC50 [64]: 6.70 | pIC50 [65]: 7.61 | pIC50 [66]: 6.84
